Measurements as given in US10953027B2, “Active agents and methods of their use for the treatment of metabolic disorders and nonalcoholic fatty liver disease” (Flagship Pioneering Innovations V, Inc., priority 2018, dated 2021).

Key:
Type in all cases: cell-based
[1] = test system: Primary human subcutaneous adipocytes; assay: Glucose uptake in human subcutaneous adipocytes, insulin resistant model
Description: As described above, primary human subcutaneous adipocytes were differentiated for two weeks prior to treatment. To induce an insulin resistant state, cells were treated in serum free Dulbecco's Modified Eagle Medium (high glucose) and […] for 24 hours. Cells were simultaneously treated with compounds diluted in DMSO for 24 hours. As described above, after 24 hours, media was exchanged for assay buffer and the compounds were added again but in the presence of approximately 1 nM insulin. Cells were washed and lysed after 2 hours and glucose uptake was measured. […] Statistical changes in glucose uptake were determined by way ANOVA and compared to DMSO.

Mouse myocyte = Mouse myocyte lipolysis assay; details: Mus musculus, read-out: Free glycerol % DMSO
Description: Cells were obtained from ATCC and cultured in Dulbecco's Modified Eagle's medium (DMEM) containing 20% fetal bovine serum and 1% penicillin/streptomycin at 37° C. in an incubator with 5% CO2. Once the cells became confluent, they were seeded into a tissue culture treated 96 well plate. The next day, the medium containing DMEM with 2% equine serum was used to start differentiation. Once cells were fully differentiated, they were treated with indicated compounds.

Mouse 3T3-L1 cells = assay: Mouse adipocyte lipolysis assay; details: Mus musculus, 3T3-L1, 24 hours, read-out: Lipolysis Free Fatty Acids % DMSO
Description: Once the cells became confluent, they were seeded into a tissue culture treated 96 well plate. […] After 14 days of differentiation, cells were treated with compounds of interest. After 24 hours post-treatment, the cell viability was assessed using CellTiter-Glo Luminescent Cell Viability Assay from Promega, and lipolysis was determined using Lipolysis Assay Kit from ZenBio.

naïve CD4+ T cells = assay: Human regulatory T cell differentiation assay; details: 6 days
Description: Peripheral blood mononuclear cells (PBMCs) from whole blood donated by health volunteers were separated by Ficoll-Paque gradient centrifugation and naïve CD4^+ T cells were subsequently isolated using magnet beads (EasySep™ Human Naïve CD4^+ T Cell Isolation Kit, Cambridge, Mass.). For regulatory T cell (Treg) differentiation assay, naïve CD4^+ T cells were cultured (1-10×10^4 cells) in CTS OpTmizer medium for 6 days and stimulated with 5 ng/ml TGF-β, 100 U/ml IL-2, and ImmunoCult™ Human […] T Cell Activator; Stemcell #10990) with/without our Compounds. Cell viability was determined using a viability dye (eBioscience Fixable Viability Dye eFluor 780: ThermoFisher 65-0865-14) at 1:500 dilution. The cells were gated for Treg, defined as Live, CD11c^−, CD14^−, CD19^−, CD8^−, CD4^+, CD3^+, CD25^+, FOXP3^+. Percent (%) Tregs were calculated as percentage of CD4^+, CD25^+, FOXP3^+ cells over total CD4^+ T cells. Statistical analysis was performed with GraphPad Prism Software Using One-Way ANOVA.

[2] = test system: Primary human subcutaneous adipocytes; assay: Glucose uptake in human subcutaneous adipocytes, insulin sensitive model
Description: Primary human subcutaneous adipocytes (Zen Bio, Research Triangle Park, N.C.) were differentiated for two weeks prior to treatment. Cells were treated with indicated compounds diluted in (dimethyl-sulfoxide) DMSO in serum free medium for 24 hours in triplicate. After 24 hours, media was exchanged for assay buffer and the compounds were added again but in the presence of approximately 1 nM insulin. Glucose uptake was initiated with the addition of a cocktail containing 2-deoxyglucose and ^3H-2-deoxyglucose and allowed to incubate for 2 hours. Cells were washed, lysed and glucose uptake was measured as counts per well. As an assay control, 100 nM of insulin was used during the 2 hours of glucose uptake. […] Statistical changes in glucose uptake were determined by way ANOVA and compared to DMSO.

[3] = test system: Human Peripheral Blood Monocytes (PBMCs); assay: Cytokine release from human PBMCs; details: 100 μM, LPS, 24 hours
Description: Human donor blood (8 mL) was collected in sodium citrate CPT tubes and centrifuged at 1,600×g for 20 minutes at room temperature. […] PBMCs samples were centrifuged at 400×g for 10 minutes at 10° C. […] PBMCs were filtered through a 70 micron mesh to remove any cellular debris. […] PBMCs in a 96-well plate were rested for 30 minutes in a 37° C., 5% CO2 incubator, then subsequently treated with 10 μl of indicated compound. After 2 hours 10 μL of LPS (O111:B4) 1 mg/mL was added to test wells. After 24 hours of incubation at 37° C., 5% CO2, 100 μL of cell supernatant was collected and transferred to a 96-well plate (non-tissue treated, flat bottom). The plate was centrifuged at 350×g for 5 minutes at room temperature, and then the clear supernatant transferred to a new 96-well plate (non-tissue treated, flat bottom). The remaining cells were tested for viability using CellTiter-Glo® Luminescent Cell Viability Assay (Promega). The supernatant was analyzed for TNFα, IL-6 and IL-1β (kit LXSAHM-03; R&D Systems), using Luminex Immunoassay Technology (MAGPIX System). Cytokine levels of LPS treated DMSO control samples were set to 100%, and compound treated samples were expressed relative to this (Table 13).

Caco-2 colonocytes = assay: Human Caco-2 barrier integrity assay (TEER); details: 48 hours
Description: Caco-2 colonocytes were maintained at 37° C. and 5% CO2 in Dulbecco's Modified Eagle Medium (DMEM) and supplemented with 10% FBS, 1% NEAA, 1% penicillin-streptomycin. At 70-80% confluency, cells were trypsinized and seeded in 0.4 cm^2 transwell collagen I coated membranes with supplemented DMEM in both apical and basolateral compartments. Cells were seeded at a density of 200,000 cells per well and maintained for 10 days to form a polarized barrier with a TransEpithelial Electrial Resistance (TEER) reading above 1000Ω. On the first day of the assay, initial TEER readings were taken and cytokines were added to the basolateral media (50 ng/mL TNFα, 25 ng/mL IFNγ and 10 ng/mL IL-1β) to reduce barrier integrity while compounds diluted in (dimethylsulfoxide) DMSO were added to the apical media in triplicate. After 48 hours, TEER readings were taken again and viability was measured by CellTiter 96® AQueous One Solution Cell Proliferation Assay (Promega). The percent change in TEER over the 48 hours was determined and normalized to the 0.1% DMSO control (Table 6).

Compound: C[C@@H](O)CCO [(R)-1,3-Butanediol, (3R)-butane-1,3-diol]
- Insulin Resistant % DMSO (glucose uptake) ([1]; 100 μM): = (50%> ≤110%: =)
- Insulin Resistant % DMSO (glucose uptake) ([1]; 500 μM): = (50%> ≤110%: =)
- activity at 500 µM (Mouse myocyte; 0.5 mM): 70 to 90%
- activity at 100 µM (Mouse 3T3-L1 cells; 100 μM): 50 to 70%
- activity at 500 µM (Mouse 3T3-L1 cells; 0.5 mM): 50 to 70%
- Cell viability % DMSO (naïve CD4+ T cells; 100 uM): = (90%≥ ≤110%: =)
- Cell viability % DMSO (naïve CD4+ T cells; 0.5 mM): = (90%≥ ≤110%: =)
- activity at 500 µM (naïve CD4+ T cells; Homo sapiens, CD4+ T, 144 h, 0.5 mM, read-out: Treg induction % DMSO): 90 to 110%
- Insulin Sensitive % DMSO (glucose uptake) ([2]; 100 μM): = (50%> ≤110%: =)
- Insulin Sensitive % DMSO (glucose uptake) ([2]; 500 μM): ++ (140%≥ ≤200%: ++)
- insulin-mediated glucose uptake ([2]; insulin sensitive model, compared to DMSO): significantly enhanced insulin-mediated glucose uptake

Compound: CC(=O)O [Acetate, acetic acid]
- IL6 % DMSO control [3]: = ((=) 90%≥ <110% DMSO)
- ILβ % DMSO control [3]: = ((=) 90%≥ <110% DMSO)
- TNFα % of DMSO control [3]: = ((=) 90%≥ <110% DMSO)
- Insulin Resistant % DMSO (glucose uptake) ([1]; 1 mM): = (50%> ≤110%: =)
- Insulin Resistant % DMSO (glucose uptake) ([1]; 3 mM): = (50%> ≤110%: =)
- activity at 1000 µM (Mouse myocyte; 1 mM): 90 to 100%
- activity at 3000 µM (Mouse myocyte; 3 mM): 90 to 100%
- activity at 1000 µM (Mouse 3T3-L1 cells; 1 mM): 50 to 70%
- activity at 3000 µM (Mouse 3T3-L1 cells; 3 mM): 50 to 70%
- Cell viability % DMSO (naïve CD4+ T cells; 1 mM): = (90%≥ ≤110%: =)
- Cell viability % DMSO (naïve CD4+ T cells; 3 mM): = (90%≥ ≤110%: =)
- activity at 1000 µM (naïve CD4+ T cells; Homo sapiens, CD4+ T, 144 h, 1 mM, read-out: Treg induction % DMSO): 110 to 130%
- activity at 3000 µM (naïve CD4+ T cells; Homo sapiens, CD4+ T, 144 h, 3 mM, read-out: Treg induction % DMSO): > 130%
- % Change in TEER from DMSO (Caco-2 colonocytes; 1 mM + cytokines): − (≤125%: −)
- % Change in TEER from DMSO (Caco-2 colonocytes; 3 mM + cytokines): − (≤125%: −)
- Insulin Sensitive % DMSO (glucose uptake) ([2]; 1 mM): = (50%> ≤110%: =)
- Insulin Sensitive % DMSO (glucose uptake) ([2]; 3 mM): = (50%> ≤110%: =)

Compound: CC(O)CC(=O)O (stereo not drawn) [BHB, β-hydroxybutyrate]
- IL6 % DMSO control [3]: = ((=) 90%≥ <110% DMSO)
- ILβ % DMSO control [3]: − ((−) ≥110% DMSO;)
- TNFα % of DMSO control [3]: − ((−) ≥110% DMSO;)
- % Change in TEER from DMSO (Caco-2 colonocytes; 200 μM + cytokines): + (125%> ≤150%: +)
- % Change in TEER from DMSO (Caco-2 colonocytes; 2 mM + cytokines): − (≤125%: −)

Compound: CCCC(=O)O [Butyrate, butyrate]
- IL6 % DMSO control [3]: + ((+) 50%≥ <90% DMSO)
- ILβ % DMSO control [3]: − ((−) ≥110% DMSO;)
- TNFα % of DMSO control [3]: ++ ((++) <50% DMSO)
- Insulin Resistant % DMSO (glucose uptake) ([1]; 3 mM): + (110%> ≤140%: +)
- % Change in TEER from DMSO (Caco-2 colonocytes; 1 mM + cytokines): − (≤125%: −)
- % Change in TEER from DMSO (Caco-2 colonocytes; 3 mM + cytokines): − (≤125%: −)
- % Change in TEER from DMSO (Caco-2 colonocytes; 5 mM + cytokines): ++ (150%≥ ≤200%: ++)
- Insulin Sensitive % DMSO (glucose uptake) ([2]; 3 mM): − (<50%: −)

Compound: CCC(=O)O [Propionate, propionate]
- IL6 % DMSO control [3]: + ((+) 50%≥ <90% DMSO)
- ILβ % DMSO control [3]: + ((+) 50%≥ <90% DMSO)
- TNFα % of DMSO control [3]: + ((+) 50%≥ <90% DMSO)
- Insulin Resistant % DMSO (glucose uptake) ([1]; 3 mM): = (50%> ≤110%: =)
- % Change in TEER from DMSO (Caco-2 colonocytes; 1 mM + cytokines): + (125%> ≤150%: +)
- % Change in TEER from DMSO (Caco-2 colonocytes; 3 mM + cytokines): ++ (150%≥ ≤200%: ++)
- Insulin Sensitive % DMSO (glucose uptake) ([2]; 3 mM): = (50%> ≤110%: =)

Compound: O=c1c(O)c(-c2ccc(O)c(O)c2)oc2cc(O)cc(O)c12 [Quercetin, quercetin]
- IL6 % DMSO control [3]: + ((+) 50%≥ <90% DMSO)
- ILβ % DMSO control [3]: + ((+) 50%≥ <90% DMSO)
- TNFα % of DMSO control [3]: + ((+) 50%≥ <90% DMSO)
- Insulin Resistant % DMSO (glucose uptake) ([1]; 100 nM): = (50%> ≤110%: =)
- Insulin Resistant % DMSO (glucose uptake) ([1]; 1 μM): = (50%> ≤110%: =)
- activity at 0.1 µM (Mouse myocyte; 100 nM): 70 to 90%
- activity at 1 µM (Mouse myocyte; 1 μM): 70 to 90%
- activity at 0.1 µM (Mouse 3T3-L1 cells; 100 nM): 50 to 70%
- activity at 1 µM (Mouse 3T3-L1 cells; 1 μM): 50 to 70%
- Cell viability % DMSO (naïve CD4+ T cells; 100 nM): = (90%≥ ≤110%: =)
- Cell viability % DMSO (naïve CD4+ T cells; 1 uM): = (90%≥ ≤110%: =)
- activity at 0.1 µM (naïve CD4+ T cells; Homo sapiens, CD4+ T, 144 h, 100 nM, read-out: Treg induction % DMSO): 90 to 110%
- activity at 1 µM (naïve CD4+ T cells; Homo sapiens, CD4+ T, 144 h, 1 uM, read-out: Treg induction % DMSO): 90 to 110%
- % Change in TEER from DMSO (Caco-2 colonocytes; 1 μM + cytokines): + (125%> ≤150%: +)
- % Change in TEER from DMSO (Caco-2 colonocytes; 100 μM + cytokines): − (≤125%: −)
- Insulin Sensitive % DMSO (glucose uptake) ([2]; 100 nM): = (50%> ≤110%: =)
- Insulin Sensitive % DMSO (glucose uptake) ([2]; 1 μM): = (50%> ≤110%: =)

Compound: O=C[C@@H](O)[C@H](O)[C@H](O)CO [arabinose]
- IL6 % DMSO control [3]: + ((+) 50%≥ <90% DMSO)
- ILβ % DMSO control [3]: = ((=) 90%≥ <110% DMSO)
- TNFα % of DMSO control [3]: + ((+) 50%≥ <90% DMSO)
- Insulin Resistant % DMSO (glucose uptake) ([1]; 0.5 mM): = (50%> ≤110%: =)
- Insulin Resistant % DMSO (glucose uptake) ([1]; 1 mM): = (50%> ≤110%: =)
- Insulin Sensitive % DMSO (glucose uptake) ([2]; 0.5 mM): = (50%> ≤110%: =)
- Insulin Sensitive % DMSO (glucose uptake) ([2]; 1 mM): ++ (140%≥ ≤200%: ++)
